{
  "source": "ChEMBL document CHEMBL4665742",
  "about": "(J Nat Prod, 2020)",
  "key": {"SK-N-AS [1]": {"test_system": "SK-N-AS", "test": "Induction of apoptosis in human SK-N-AS cells assessed as PARP cleavage at 12.5 to 50 uM after 6 to 24 hrs by […]", "assay_type": "functional, cell-based", "conditions": "dose microM 12.5-50, time hrs 6-24"}, "SK-N-AS [2]": {"test_system": "SK-N-AS", "test": "Antiproliferative activity against human SK-N-AS cells after 24 hrs", "assay_type": "functional"}, "SK-N-FI [3]": {"test_system": "SK-N-FI", "test": "Induction of apoptosis in human SK-N-FI cells assessed as PARP cleavage at 12.5 to 50 uM after 6 to 24 hrs by […]", "assay_type": "functional, cell-based", "conditions": "dose microM 12.5-50, time hrs 6-24"}, "Kelly [4]": {"test_system": "Kelly", "test": "Induction of apoptosis in human Kelly cells assessed as PARP cleavage at 12.5 to 50 uM after 6 to 24 hrs by […]", "assay_type": "functional, cell-based", "conditions": "dose microM 12.5-50, time hrs 6-24"}, "SK-N-FI [5]": {"test_system": "SK-N-FI", "test": "Antiproliferative activity against human SK-N-FI cells after 24 hrs", "assay_type": "functional"}, "SK-N-BE(2)-M17 [6]": {"test_system": "SK-N-BE(2)-M17", "test": "Induction of apoptosis in human SK-N-BE(2)-M17 cells assessed as PARP cleavage at 12.5 to 50 uM after 6 to 24 hrs by […]", "assay_type": "functional, cell-based", "conditions": "dose microM 12.5-50, time hrs 6-24"}, "SK-N-BE(2)-M17 [7]": {"test_system": "SK-N-BE(2)-M17", "test": "Antiproliferative activity against human SK-N-BE(2)-M17 cells after 24 hrs", "assay_type": "functional"}, "Kelly [8]": {"test_system": "Kelly", "test": "(§1) Antiproliferative activity against human Kelly cells after 24 hrs", "assay_type": "functional"}, "[9]": {"test": "as §1", "assay_type": "functional", "conditions": "read-out: ED50 (the source's name)"}, "[10]": {"conditions": "read-out: ED50 (the source's name)"}},
  "note": "Activity calls are given as the source filed them. The calls are words filed in the database; no cut-off is given here.",
  "data": [
    {"smiles": "C=CCS[S+]([O-])CC=C", "note": "(stereo not given) [ALLICIN]", "values": [
      {"measurement": "Activity", "setting": "SK-N-AS [1]", "value": "Active"},
      {"measurement": "Activity", "setting": "SK-N-AS [2]", "value": "Dose-dependent effect"},
      {"measurement": "EC50", "setting": "SK-N-AS [2]; [10]", "value": 19.5, "unit": "µM"},
      {"measurement": "Activity", "setting": "SK-N-FI [3]", "value": "Active"},
      {"measurement": "Activity", "setting": "Kelly [4]", "value": "Active"},
      {"measurement": "Activity", "setting": "SK-N-FI [5]", "value": "Dose-dependent effect"},
      {"measurement": "EC50", "setting": "SK-N-FI [5]; [10]", "value": 18.1, "unit": "µM"},
      {"measurement": "Activity", "setting": "SK-N-BE(2)-M17 [6]", "value": "Active"},
      {"measurement": "Activity", "setting": "SK-N-BE(2)-M17 [7]", "value": "Dose-dependent effect"},
      {"measurement": "EC50", "setting": "SK-N-BE(2)-M17 [7]; [10]", "value": 10.3, "unit": "µM"},
      {"measurement": "Activity", "setting": "Kelly [8]", "value": "Dose-dependent effect"},
      {"measurement": "EC50", "setting": "[9]", "value": 9.21, "unit": "µM"}
    ]},
    {"smiles": "NCCCC(N)(C(=O)O)C(F)F", "note": "(stereo not given)", "values": [
      {"measurement": "Activity", "setting": "SK-N-AS [2]", "value": "Dose-dependent effect"},
      {"measurement": "Activity", "setting": "SK-N-FI [5]", "value": "Dose-dependent effect"},
      {"measurement": "Activity", "setting": "SK-N-BE(2)-M17 [7]", "value": "Dose-dependent effect"}
    ]}
  ]
}
